Results taken from patent US20090221573A1, “Use of Activators of Soluble Guanylate Cyclase for Promoting Wound Healing” (Bayer HealthCare AG, priority 2005, published 2009).
Where two headings read alike, the source gives them in different places.

System: smooth muscle cells of the human coronary artery
Experiment: Inhibition of the horizontal migration of smooth muscle cells (wounded monolayer)
Type: cell-based
Conditions: read-out: Inhibition of the horizontal migration of smooth muscle cells of the human coronary artery, IC50
Procedure: Smooth muscle cells of the human coronary artery are seeded in a 6-well plate (1.5×10^5 cells/well) (Clonetics) and cultured in SmGM2 medium (Clonetics) for 48 h. Before the plates are used, the wells are coated with vitronectin (50 ng/cm^2; Gibco BRL). Half of the confluent cell monolayer is removed with the aid of a cell scraper (wounding). In the cell-free region, the vitronectin coating is at least 50% retained in this case. For the test, unless mentioned otherwise, the culture medium is replaced by MCDB-131/0.2% BSA (Gibco/BRL) medium. The test substances are added in various concentrations, and the migration distance in the cell-free region is followed with the aid of a microscope over 24 h and 48 h. Each measurement point represents the average of four measured regions. PDGF, as potent chemotactic factor for SMC, is used as positive control (1 nM, 10 nM, R&D systems). The RGD tripeptide (Bachem) is employed to inhibit the integrin-induced migration. To determine the antagonistic activity of the test substances, the cells are stimulated in the presence of the substance with 1 nM or 10 nM PDGF, and the migration distances are determined in relation to the PDGF-induced migration distances.

| Compound | IC50 (48 h) [nM] | IC50 (incubation time 48 h) [nM] |
| --- | --- | --- |
| COC(=O)Nc1c(N)nc(-c2nn(Cc3ccccc3F)c3ncccc23)nc1N [IVa] | 30 | – |
| O=C(O)CCCCN(CCc1ccccc1OCc1ccc(CCc2ccccc2)cc1)Cc1ccc(C(=O)O)cc1 [Compound I] | 5 | – |
| COC(=O)N(C)c1c(N)nc(-c2nn(Cc3ccccc3F)c3ncccc23)nc1N [IV] | – | 10 |
